In article PMC7113757 (Antiviral Research, 2014):

Assays:
CVB3 3C^pro [1] = target: T1, CVB3 3C^pro (Coxsackievirus B3, UniProt P03313); experiment: Cell-based protease assay
FMDV 3C^pro = FMDV 3C^pro (Foot-and-mouth disease virus serotype O, UniProt P03305); experiment: cell-based; type: cell-based
EV71 3C^pro = EV71 3C^pro (Human enterovirus 71, UniProt Q66478); type: cell-based
PV 3C^pro = PV 3C^pro (Poliovirus type 1, UniProt P03300); type: cell-based
HRV14 3C^pro = HRV14 3C^pro (Human rhinovirus 14, UniProt P03303); type: cell-based
EMCV 3C^pro = target: T2, EMCV 3C^pro (Encephalomyocarditis virus, UniProt P03304); type: cell-based
T2 sequence (P03304 1626-1830 limits assumed): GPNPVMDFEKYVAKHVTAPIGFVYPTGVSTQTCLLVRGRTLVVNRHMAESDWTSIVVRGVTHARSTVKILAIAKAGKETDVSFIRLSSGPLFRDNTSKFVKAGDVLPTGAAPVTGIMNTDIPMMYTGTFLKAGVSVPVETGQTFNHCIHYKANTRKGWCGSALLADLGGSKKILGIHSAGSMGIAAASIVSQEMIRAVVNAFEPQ

SAFV 3C^pro = target: T3, SAFV 3C^pro (Saffold virus, UniProt C0MHL9); type: cell-based
T3 sequence (C0MHL9 1618-1834 limits assumed): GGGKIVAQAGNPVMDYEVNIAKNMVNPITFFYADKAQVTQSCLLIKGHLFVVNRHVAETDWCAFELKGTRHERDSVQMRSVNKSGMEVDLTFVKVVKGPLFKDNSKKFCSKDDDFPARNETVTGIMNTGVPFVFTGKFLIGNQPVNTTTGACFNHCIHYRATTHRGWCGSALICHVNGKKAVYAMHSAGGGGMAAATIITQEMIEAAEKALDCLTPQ

HPeV 3C^pro = target: T4, HPeV 3C^pro (Human parechovirus 1, UniProt Q66578); type: cell-based
T4 sequence (Q66578 1518-1711 limits assumed): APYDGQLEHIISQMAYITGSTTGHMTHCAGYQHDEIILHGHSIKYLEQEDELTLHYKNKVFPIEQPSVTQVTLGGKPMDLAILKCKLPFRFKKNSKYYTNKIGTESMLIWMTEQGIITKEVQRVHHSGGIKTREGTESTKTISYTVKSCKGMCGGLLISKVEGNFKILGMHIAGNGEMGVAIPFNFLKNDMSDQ

HAV 3C^pro = target: T5, HAV 3C^pro (Human hepatitis A virus genotype IB, UniProt P08617); type: cell-based
T5 sequence (P08617 1520-1738 limits assumed): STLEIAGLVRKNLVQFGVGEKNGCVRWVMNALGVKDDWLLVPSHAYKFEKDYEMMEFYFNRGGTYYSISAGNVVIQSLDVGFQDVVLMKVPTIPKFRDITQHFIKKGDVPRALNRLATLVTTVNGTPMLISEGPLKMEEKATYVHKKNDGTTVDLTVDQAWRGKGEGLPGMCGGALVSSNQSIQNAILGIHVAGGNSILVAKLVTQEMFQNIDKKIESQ

EMCV = experiment: Growth curves of EMCV; type: cell-based; details: 50 μM
SAFV = experiment: Growth curves of SAFV; type: cell-based; details: 50 μM
CVB3 3C^pro [2] = target: T1, CVB3 3C^pro; experiment: Western blot of fusion protein cleavage in COS-1 cells; type: cell-based; details: 50 μM, pBind-3Cpro(CVB3)-VP16
CVB3 3C^pro [3] = target: T1, CVB3 3C^pro; experiment: Cell-based protease assay with EGFP read-out; details: 50 μM, COS-1 cells, imaged after 2 days
HAV strain HM175 = details: ref Debing et al., 2013; cited from earlier work

Row | Compound | EC50 (CVB3 3C^pro [1]) [µM] | EC50 (FMDV 3C^pro) [µM] | inhibitory activity towards FMDV 3Cpro (FMDV 3C^pro) | FLuc expression upon treatment, CVB3 3Cpro construct (CVB3 3C^pro [1]; 50 μM, COS-1 cells) | increase in FLuc levels compared to untreated (CVB3 3C^pro [1]; 50 μM, COS-1 cells, CVB3 3Cpro construct) [fold] | FLuc expression upon treatment, FMDV 3Cpro construct (FMDV 3C^pro) | FLuc expression upon treatment, EV71 3Cpro construct (EV71 3C^pro) | FLuc expression upon treatment, PV 3Cpro construct (PV 3C^pro) | FLuc expression upon treatment, HRV14 3Cpro construct (HRV14 3C^pro) | effect on reporter activity, EMCV 3Cpro construct (EMCV 3C^pro) | effect on reporter activity, SAFV 3Cpro construct (SAFV 3C^pro) | effect on reporter activity, HPeV 3Cpro construct (HPeV 3C^pro) | effect on reporter activity, HAV 3Cpro construct (HAV 3C^pro) | activity against EMCV in growth curves (EMCV) | activity against SAFV in growth curves (SAFV) | cleavage of fusion protein (Western blot) (CVB3 3C^pro [2]) | GFP signal from pG5EGFP reporter (CVB3 3C^pro [3]) | effect on HAV replication, strain HM175 (HAV strain HM175)
1 | C#CC[C@@H](C(=O)N[C@H](/C=C/C(=O)OCC)C[C@@H]1CCNC1=O)n1cccc(NC(=O)c2cc(C)on2)c1=O [AG7404] | 3.6 | > 100 | little or no inhibitory activity |  |  |  |  |  |  |  |  |  |  |  |  |  |  | 
2 | CCOC(=O)/C=C/[C@H](C[C@@H]1CCNC1=O)NC(=O)[C@@H](CC(=O)[C@@H](NC(=O)c1cc(C)on1)C(C)C)Cc1ccc(F)cc1 [AG7088] | 1.1 |  |  | induced | ~40 | increased | induced | induced | induced | no effect | no effect | no effect | no effect | no significant activity | no significant activity | not completely blocked | GFP was visible | no effect
